Like-named read-outs stand apart in the source and are kept apart here.
Key:
human α-thrombin = human α-thrombin (Homo sapiens, UniProt P00734); assay: Determination of Ki: inhibition of human α-thrombin catalysed hydrolysis of chromogenic substrate S-2238; type: biochemical
Method: The inhibition of human α-thrombin was determined by the inhibition of the enzyme catalysed hydrolysis of three different concentrations of the chromogenic substrate S-2238.
200 μl of sample or buffer and 50 μl of S-2238 were incubated at 37° C. for 1 min and 50 μl of human α-thrombin (0.25 NIH μ/ml) was added. The initial rate of inhibited and uninhibited reactions were recorded at […]. The increase in optical density was plotted according to the method of Lineweaver and Burke. The Km and apparent Km were determined and Ki was calculated using the relationship. [formula]
The buffer used contained 0.1M sodium phosphate, 0.2M NaCl, 0.5% PEG and 0.02% sodium azide, adjusted to pH 7.5 with orthophosphoric acid.
The samples consist of the compound dissolved in DMSO.
The reader is referred to Dixon, M and Webb, E. C., "Enzymes", third edition, 1979, Academic Press, the disclosure of which is incorporated herein by reference, for a further description of the measurement of Ki.

elastase = assay: Inhibition constant (Ki) against elastase; type: biochemical
[1] = Table 4, 37° C., substrate S-2238
[2] = Table 5, Ki against elastase, 37° C., read-out: Ela
[3] = Table 6, comparative with prior art compounds, unit inferred
[4] = Table 6, comparative with prior art compounds, unit inferred, read-out: Ki(elastase)

Compound	Ki (human α-thrombin; [1])	also measured
Z-D,L-Dpa-(CO2)BoroMpgOPin [Example 109]	0.435 µM	–
Cbz-D-Dpa-Pro-.psi.(CO2)-GlyP(-)OPin [Example 177]	13.7 µM	–
CC(C)C(OC(=O)C1CCCN1C(=O)C(NC(=O)OCc1ccccc1)C(c1ccccc1)c1ccccc1)B1OC2CC3CC(C3(C)C)C2(C)O1 [Example 87, Benzyloxycarbonyl-D,L-diphenylalanylprolyl-.psi.(CO2)-borovaline pinanediol ester]	18.2 µM	Ki (elastase; [2]): 55 µM
CCOP(=O)(OCC)C(OC(=O)C1CCCN1C(=O)C(NC(=O)OCc1ccccc1)C(c1ccccc1)c1ccccc1)c1ccc([N+](=O)[O-])cc1 (racemic) [Example 239, Cbz-DL-Dpa-Pro-CO2 pNO2Phg^P (OEt)2]	6.2 µM	–
Z-D-Phe-ProBoroEtgOPin [reference compound]	–	Ki (human α-thrombin; [3]): 1 µM; Ki (elastase; [4]): 0.561 µM
Z-D,L-Dpa-Pro-BoroPhe-OPin [reference compound]	–	Ki (human α-thrombin; [3]): 0.082 µM
Cbz-D-Dpa-Pro-.psi.(COCH2)BoroHpg(-)OPin [Example 270]	0.292 µM	–
CCOP(=O)(OCC)C(OC(=O)[C@@H]1CCCN1C(=O)C(NC(=O)OCc1ccccc1)C(c1ccccc1)c1ccccc1)c1ccccc1 (mixture of isomers) [Example 264, Cbz-DL-Dpa-Pro.psi.(CO2)Phg^P (OEt)2]	16 µM	–
Z-D-Dpa-Pro(CO2)-L-BoroMpgOPin [Example 116]	0.283 µM	–
CC(C)C(NC(=O)C1CCCN1C(=O)C(NC(=O)OCc1ccccc1)C(c1ccccc1)c1ccccc1)B1OC(C)(C)C(C)(C)O1 [Z-D-Dpa-Pro-BoroVal-OPin, reference compound]	–	Ki (elastase; [4]): > 70.8 µM
Z-D-Dpa-Pro-(CH2 O)-L-BoroMpg-OPin [Example 173]	2.39 µM	–

Continued, in another order:

Ki (human α-thrombin; [1])	Compound	also measured
0.088 µM	CC1(C)C2CC3OB(C(OC(=O)C4CCCN4C(=O)[C@@H](Cc4ccccc4)NC(=O)OCc4ccccc4)c4ccccc4)OC3(C)C1C2 (stereo partly drawn) [Example 100, Cbz-D-Phe-Pro-.psi.(CO2)-boroPgl pinanediol]	–
0.039 µM	Cbz-D,L-Dpa-Pro-(CO2)boroPhe-OPin [Example 89]	–
0.0392 µM	CC1(C)C2CC3OB(C(Cc4ccccc4)OC(=O)C4CCCN4C(=O)[C@H](NC(=O)OCc4ccccc4)C(c4ccccc4)c4ccccc4)OC3(C)C1C2 (stereo partly drawn) [Example 91, Cbz-D-Dpa-Pro-.psi.(CO2)-boroPhe pinanediol]	–
0.131 µM	CC1(C)C2CC3OB(C(OC(=O)C4CCCN4C(=O)C(NC(=O)OCc4ccccc4)C(c4ccccc4)c4ccccc4)c4ccccc4)OC3(C)C1C2 [Example 101, Cbz-D,L-Dpa-Pro-.psi.(CO2)-BoroPgl pinanediol]	–
0.129 µM	Cbz-D-Phe-Pro-.psi.(CO2)-BoroPhe-OPin [Example 88]	–
0.247 µM	CCC(OC(=O)C1CCCN1C(=O)C(NC(=O)OCc1ccccc1)C(c1ccccc1)c1ccccc1)B1OC2CC3CC(C3(C)C)C2(C)O1 [Example 90, Cbz-D,L-Dpa-Pro-.psi.(CO2)-1-propyl-1-boronate pinanediol]	Ki (elastase; [2]): 4.5 µM
0.148 µM	Cbz-D-Phe-Pro-.psi.(CH2 O)-BoroPhe-OPin [Example 102]	–
0.269 µM	Cbz-D-Phe-Pro-.psi.(CO2)-boroethylglycine pinanediol [Example 85]	Ki (elastase; [2]): 0.087 µM

From patent US6127340A, “Serine protease inhibitors” (Trigen Limited, priority 1995, dated 2000)
